Where two headings read alike, the source gives them in different places.
Columns and labels:
Type in all cases: cell-based
NCI-H226 = test: NCI in vitro cytotoxicity (SRB, 48 h), Non-small cell lung panel; settings: Homo sapiens, 48 h exposure
T-47D = test: NCI in vitro cytotoxicity (SRB, 48 h), Breast panel; settings: Homo sapiens, T47D, 48 h exposure
SK-OV-3 = test: NCI in vitro cytotoxicity (SRB, 48 h), Ovarian panel; settings: Homo sapiens; SK-OV-3, Ovarian; 48 h exposure
HCT-116 = test: NCI in vitro cytotoxicity (SRB, 48 h), Colon panel; settings: Homo sapiens; HCT-116, Colon; 48 h exposure
SK-MEL-5 = test: NCI in vitro cytotoxicity (SRB, 48 h), Melanoma panel; settings: Homo sapiens; SK-MEL-5, Melanoma; 48 h exposure
U251 = test: NCI in vitro cytotoxicity (SRB, 48 h), CNS panel; settings: Homo sapiens, U-251, 48 h exposure
CAKI-1 = test: NCI in vitro cytotoxicity (SRB, 48 h), Renal panel; settings: Homo sapiens; CAKI-1, Renal; 48 h exposure
MDA-MB-468 = test: NCI in vitro cytotoxicity (SRB, 48 h), Breast panel; settings: Homo sapiens; MDA-MB-468, Breast; 48 h exposure
HT29 = test: NCI in vitro cytotoxicity (SRB, 48 h), Colon panel; settings: Homo sapiens, HT-29, 48 h exposure
RPMI-8226 = test: NCI in vitro cytotoxicity (SRB, 48 h), Leukemia panel; settings: Homo sapiens; RPMI-8226, Leukemia; 48 h exposure
NCI-H23 = test: NCI in vitro cytotoxicity (SRB, 48 h), Non-small cell lung panel; settings: Homo sapiens, 48 h exposure
SN12C = test: NCI in vitro cytotoxicity (SRB, 48 h), Renal panel; settings: Homo sapiens, 48 h exposure
NCI-H460 = test: NCI in vitro cytotoxicity (SRB, 48 h), Non-small cell lung panel; settings: Homo sapiens, 48 h exposure
SNB-19 = test: NCI in vitro cytotoxicity (SRB, 48 h), CNS panel; settings: Homo sapiens; SNB-19, CNS; 48 h exposure
HS 578T = test: NCI in vitro cytotoxicity (SRB, 48 h), Breast panel; settings: Homo sapiens, 48 h exposure
SNB-75 = test: NCI in vitro cytotoxicity (SRB, 48 h), CNS panel; settings: Homo sapiens; SNB-75, CNS; 48 h exposure
[1] = test system: sixty human tumour cell lines; test: NCI in vitro cytotoxicity, all panels
A549/ATCC = test: NCI in vitro cytotoxicity (SRB, 48 h), Non-small cell lung panel; settings: Homo sapiens, 48 h exposure
SK-MEL-28 = test: NCI in vitro cytotoxicity (SRB, 48 h), Melanoma panel; settings: Homo sapiens; SK-MEL-28, Melanoma; 48 h exposure
MOLT-4 = test: NCI in vitro cytotoxicity (SRB, 48 h), Leukemia panel; settings: Homo sapiens; MOLT-4, Leukemia; 48 h exposure
786-0 = test: NCI in vitro cytotoxicity (SRB, 48 h), Renal panel; settings: Homo sapiens; 786-0, Renal; 48 h exposure
UO-31 = test: NCI in vitro cytotoxicity (SRB, 48 h), Renal panel; settings: Homo sapiens; UO-31, Renal; 48 h exposure
Melanoma cell lines = test: NCI in vitro cytotoxicity, whole panel; settings: Homo sapiens
HCC-2998 = test: NCI in vitro cytotoxicity (SRB, 48 h), Colon panel; settings: Homo sapiens; HCC-2998, Colon; 48 h exposure
Breast cancer cell lines = test: NCI in vitro cytotoxicity, whole panel; settings: Homo sapiens
NCI-H322M = test: NCI in vitro cytotoxicity (SRB, 48 h), Non-small cell lung panel; settings: Homo sapiens, 48 h exposure
TK-10 = test: NCI in vitro cytotoxicity (SRB, 48 h), Renal panel; settings: Homo sapiens; TK-10, Renal; 48 h exposure
IGROV1 = test: NCI in vitro cytotoxicity (SRB, 48 h), Ovarian panel; settings: Homo sapiens, IGROV-1; IGROV1, Ovarian; 48 h exposure
RXF 393 = test: NCI in vitro cytotoxicity (SRB, 48 h), Renal panel; settings: Homo sapiens; RXF 393, Renal; 48 h exposure
LOX IMVI = test: NCI in vitro cytotoxicity (SRB, 48 h), Melanoma panel; settings: Homo sapiens, 48 h exposure
NCI-H522 = test: NCI in vitro cytotoxicity (SRB, 48 h), Non-small cell lung panel; settings: Homo sapiens, 48 h exposure
MDAMB-435 = test: NCI in vitro cytotoxicity (SRB, 48 h), Melanoma panel; settings: Homo sapiens, MDA-MB-435; MDAMB-435, Melanoma; 48 h exposure
HOP-62 = test: NCI in vitro cytotoxicity (SRB, 48 h), Non-small cell lung panel; settings: Homo sapiens; HOP-62, Non-small cell lung; 48 h exposure
UACC-62 = test: NCI in vitro cytotoxicity (SRB, 48 h), Melanoma panel; settings: Homo sapiens; UACC-62, Melanoma; 48 h exposure
Renal cancer cell lines = test: NCI in vitro cytotoxicity, whole panel; settings: Homo sapiens
SF-268 = test: NCI in vitro cytotoxicity (SRB, 48 h), CNS panel; settings: Homo sapiens; SF-268, CNS; 48 h exposure
OVCAR-3 = test: NCI in vitro cytotoxicity (SRB, 48 h), Ovarian panel; settings: Homo sapiens; OVCAR-3, Ovarian; 48 h exposure
PC-3 = test: NCI in vitro cytotoxicity (SRB, 48 h), Prostate panel; settings: Homo sapiens; PC-3, Prostate; 48 h exposure

COc1cc(C(=O)/C=C/c2c(-c3ccc(F)cc3)nc3sc(C)cn23)cc(OC)c1OC [Compound 19e, (E)-3-(6-(4-fluorophenyl)-2-methylimidazo[2,1-b]thiazol-5-yl)-1-(3,4,5-trimethoxyphenyl)prop-2-en-1-one]
GI50 (NCI-H226): 9.58 µM
GI50 (T-47D): 2.93 µM
GI50 (SK-OV-3): 6.12 µM
GI50 (HCT-116): 2.92 µM
GI50 (SK-MEL-5): 0.51 µM
GI50 (U251): 4.07 µM
GI50 (CAKI-1): 1.78 µM
GI50 (MDA-MB-468): 2.38 µM
GI50 (HT29): 6.96 µM
GI50 (RPMI-8226): 2.32 µM
GI50 (NCI-H23): 2.24 µM
GI50 (SN12C): 9.01 µM
GI50 (NCI-H460): 3.87 µM
GI50 (SNB-19): 87.8 µM
GI50 (HS 578T): 8.29 µM
GI50 (SNB-75): 50.1 µM
GI50 ([1]; Homo sapiens, sixty cell lines, nine panels, read-out: GI50 against sixty cell lines in nine cell panels): < 9 µM
Log10 TGI mean graph midpoint (MG_MID) ([1]; human tumour cell lines): −4.14
in vitro cytotoxicity, in words ([1]; human tumour cell lines): significant cytotoxicity
GI50 ([1]; human tumour cell lines, read-out: Log10 GI50 mean graph midpoint (MG_MID) (converted)): 4.79 µM
CC50 ([1]; human tumour cell lines, read-out: Log10 LC50 mean graph midpoint (MG_MID) (converted)): 95.5 µM
GI50 (A549/ATCC): 9.34 µM
GI50 (SK-MEL-28): 7.07 µM
GI50 (MOLT-4): 1.62 µM
GI50 (786-0): 8.88 µM
GI50 (UO-31): 2.95 µM
GI50 (Melanoma cell lines; Melanoma, average of six to eight cell lines, read-out: Log10 GI50 (converted)): 3.02 µM
CC50 (Melanoma cell lines; Melanoma, average of six to eight cell lines, read-out: Log10 LC50 (converted)): ≥ 100 µM
GI50 (Melanoma cell lines; exposure period of at least 48 hrs, read-out: GI50, range over melanoma cell lines): 0.51 to 7.07 µM
GI50 (HCC-2998): 9.93 µM
GI50 (Breast cancer cell lines; Breast, average of six to eight cell lines, read-out: Log10 GI50 (converted)): 3.63 µM
CC50 (Breast cancer cell lines; Breast, average of six to eight cell lines, read-out: Log10 LC50 (converted)): ≥ 100 µM
IC50 (Breast cancer cell lines; exposure period of at least 48 hrs, read-out: IC50, range over breast cell lines): 1.81 to 8.29 µM
GI50 (NCI-H322M): 8.65 µM
GI50 (TK-10): 28 µM
GI50 (IGROV1): 8.71 µM
GI50 (RXF 393): 5.75 µM
GI50 (LOX IMVI): 2.5 µM
GI50 (NCI-H522): 2.96 µM
GI50 (MDAMB-435): 1.75 µM
GI50 (HOP-62): 85.1 µM
GI50 (UACC-62): 2.91 µM
GI50 (Renal cancer cell lines; Renal, average of six to eight cell lines, read-out: Log10 GI50 (converted)): 6.31 µM
CC50 (Renal cancer cell lines; Renal, average of six to eight cell lines, read-out: Log10 LC50 (converted)): ≥ 100 µM
GI50 (Renal cancer cell lines; exposure period of at least 48 hrs, read-out: GI50, range over renal cell lines): 1.78 to 28 µM
GI50 (SF-268): 15.2 µM
GI50 (OVCAR-3): 3.66 µM
GI50 (PC-3): 2.41 µM

From patent US8916711B2, “Imidazothiazole-chalcone derivatives as potential anticancer agents and process for the preparation thereof” (Council of Scientific and Industrial Research, priority 2009, dated 2014)
